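Grown in 96-well plates, cells were treated for 48 hours with each compound at five concentrations. Insufficient inhibition: endpoint recorded as highest concentration tested. GI50 = concentration required for 50% inhibition of growth.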 Calls of active or inactive are those of the source. Cut-off read from the data, not from the text of the source: active = GI50 up to about 1.1 µM and inactive = higher.
Legend:
Assay in all cases: DTP human tumour cell line panel, 48 h
786-0 = test system: 786-0
A498 = test system: A498
A549 = test system: A549
ACHN = test system: ACHN
CAKI-1 = test system: CAKI-1
HCC 2998 = test system: HCC 2998
MDA-MB-435 = test system: MDA-MB-435
MDA-N = test system: MDA-N
NCI-H226 = test system: NCI-H226
OVCAR-8 = test system: OVCAR-8
PC-3 = test system: PC-3
RPMI-8226 = test system: RPMI-8226
RXF 393 = test system: RXF 393
SF-539 = test system: SF-539
SK-MEL-5 = test system: SK-MEL-5
SK-OV-3 = test system: SK-OV-3
TK-10 = test system: TK-10
U-251 = test system: U-251
UACC-62 = test system: UACC-62
UO-31 = test system: UO-31

CCC1CCC2C3CC=C4CC(OC(C)=O)C(N)CC4(C)C3CCC12C (stereo not given)
GI50 (786-0): 2.02 µM (inactive)
GI50 (A498): 5.25 µM (inactive)
GI50 (A549): 2.07 µM (inactive)
GI50 (ACHN): 7.89 µM (inactive)
GI50 (CAKI-1): 8.55 µM (inactive)
GI50 (HCC 2998): 1.59 µM (inactive)
GI50 (MDA-MB-435): 2.35 µM (inactive)
GI50 (MDA-N): 2.7 µM (inactive)
GI50 (NCI-H226): 20.2 µM (inactive)
GI50 (OVCAR-8): 2.05 µM (inactive)
GI50 (PC-3): 2.71 µM (inactive)
GI50 (RPMI-8226): 2.69 µM (inactive)
GI50 (RXF 393): 1.85 µM (inactive)
GI50 (SF-539): 1.86 µM (inactive)
GI50 (SK-MEL-5): 1.82 µM (inactive)
GI50 (SK-OV-3): 9.53 µM (inactive)
GI50 (TK-10): 2.66 µM (inactive)
GI50 (U-251): 1.86 µM (inactive)
GI50 (UACC-62): 4.89 µM (inactive)
GI50 (UO-31): 5.24 µM (inactive)

CCN1CCC(O)(/C=C/c2ccc(C)cc2C)C(C(=O)/C=C/c2ccc(C)cc2C)C1 (stereo not given)
GI50 (786-0): 1.71 µM (inactive)
GI50 (A498): 9.59 µM (inactive)
GI50 (A549): 4 µM (inactive)
GI50 (ACHN): 1.83 µM (inactive)
GI50 (CAKI-1): 5.09 µM (inactive)
GI50 (HCC 2998): 1.69 µM (inactive)
GI50 (MDA-MB-435): 2.51 µM (inactive)
GI50 (MDA-N): 2.2 µM (inactive)
GI50 (NCI-H226): 2.77 µM (inactive)
GI50 (OVCAR-8): 2.09 µM (inactive)
GI50 (PC-3): 2.5 µM (inactive)
GI50 (RPMI-8226): 4.76 µM (inactive)
GI50 (RXF 393): 3.21 µM (inactive)
GI50 (SF-539): 1.92 µM (inactive)
GI50 (SK-MEL-5): 3.04 µM (inactive)
GI50 (SK-OV-3): 9.57 µM (inactive)
GI50 (TK-10): 1.64 µM (inactive)
GI50 (U-251): 3.39 µM (inactive)
GI50 (UACC-62): 3.41 µM (inactive)
GI50 (UO-31): 2.35 µM (inactive)

CC[C@H]1C=CCC[C@@]2(C[C@@H]3CC[C@@H]4[C@H](C(=O)OCCCCCCCCCCCCCCCC(=O)N(CCCN)CCCCN)[C@]5(CCC[C@@H](C)O5)NC(=[N+]34)N2)O1
GI50 (786-0): 0.0229 µM (active)
GI50 (A498): 1.56 µM (inactive)
GI50 (A549): 0.0365 µM (active)
GI50 (ACHN): 0.0826 µM (active)
GI50 (CAKI-1): 0.0908 µM (active)
GI50 (HCC 2998): 0.0641 µM (active)
GI50 (MDA-MB-435): < 0.01 µM (active)
GI50 (MDA-N): 0.0121 µM (active)
GI50 (NCI-H226): 0.314 µM (active)
GI50 (OVCAR-8): 0.155 µM (active)
GI50 (PC-3): 0.0428 µM (active)
GI50 (RPMI-8226): 0.0344 µM (active)
GI50 (RXF 393): 0.071 µM (active)
GI50 (SF-539): 0.0679 µM (active)
GI50 (SK-MEL-5): < 0.01 µM (active)
GI50 (SK-OV-3): 0.136 µM (active)
GI50 (TK-10): 1.23 µM (inactive)
GI50 (U-251): 0.0561 µM (active)
GI50 (UACC-62): 0.0185 µM (active)
GI50 (UO-31): 0.0519 µM (active)

CCN(CC)c1ccc(/C=C2/C[N+](C)(C)C/C(=C/c3ccc(N(CC)CC)cc3)C2=O)cc1
GI50 (786-0): 3.12 µM (inactive)
GI50 (A498): 12.4 µM (inactive)
GI50 (A549): 4.92 µM (inactive)
GI50 (ACHN): 32 µM (inactive)
GI50 (CAKI-1): > 48 µM (inactive)
GI50 (HCC 2998): 2.42 µM (inactive)
GI50 (MDA-MB-435): 1.67 µM (inactive)
GI50 (MDA-N): 1.66 µM (inactive)
GI50 (NCI-H226): 6.21 µM (inactive)
GI50 (OVCAR-8): 3.32 µM (inactive)
GI50 (PC-3): 3.05 µM (inactive)
GI50 (RPMI-8226): 0.653 µM (active)
GI50 (RXF 393): 2.77 µM (inactive)
GI50 (SF-539): 2.32 µM (inactive)
GI50 (SK-MEL-5): 1.67 µM (inactive)
GI50 (SK-OV-3): 9.29 µM (inactive)
GI50 (TK-10): 9.84 µM (inactive)
GI50 (U-251): 2.37 µM (inactive)
GI50 (UACC-62): 2.01 µM (inactive)
GI50 (UO-31): > 58.9 µM (inactive)
